Usually IC50 stands for the concentration at which inhibition is half-maximal.

One test addresses GCN2 kinase (Homo sapiens (Human), UniProt Q9P2K8). Put plainly: Biochemical assay for GCN2 (TR-FRET kinase activity). The settings on record: 1 mM ATP. As to the method: Activity of GCN2 kinase was determined using a TR-FRET kinase activity assay (e.g. Riddle et al. Analytical Biochemistry (2006) 356(1) 108-116). Assays were conducted in 384-well plates (13 μL assay volume) using 2 nM GCN2 (Carna Biosciences), 130 nM GFP-EIf2α (Invitrogen), 0.2 mg/mL E. coli tRNA (sigma) and 1 mM ATP in kinase buffer (Invitrogen). Inhibition of GCN2 was measured by adding serial diluted test compound (final assay concentration of 0.5% DMSO) followed by a 3-hour incubation. Tb-peIF2α (pSer52) antibody (Invitrogen) (2 nM final assay concentration) in kinase buffer containing EDTA (final assay concentration of 20 mM) was added. After a 60 min incubation at room temperature, TR-FRET was monitored using an excitation wavelength of 340 nm and emission wavelengths of 490 nm and 520 nm. The emission ratio (520/490) at each compound concentration of was converted to percent inhibition using controls (i.e., reaction with no test compound and reaction with a known inhibitor) and IC50 values were calculated by fitting a four-parameter sigmoidal curve to the data using Prism (GraphPad software).
In general terms: In TR-FRET formats the signal depends on donor and acceptor labels being close together.

The next test concerns the target PERK enzyme (Homo sapiens (Human), UniProt Q9NZJ5). Description: Biochemical assay for PERK (coupled pyruvate kinase/lactate dehydrogenase). The settings on record: 1 mM ATP. On the procedure:
Activity of PERK kinase was determined spectroscopically using a coupled pyruvate kinase/lactate dehydrogenase assay that continuously monitors the ATP hydrolysis-dependent oxidation of NADH (e.g., Schindler et al. Science (2000) 289: 1938-1942). Assays were conducted in 384-well plates ([…] final volume) using 10 nM PERK (from Beryllium), 0.25 mg/mL Myelin Basic Protein substrate, 1.5 units pyruvate kinase, 2.1 units lactate dehydrogenase, 1 mM phosphoenol pyruvate, 0.28 mM NADH and 1 mM ATP in assay buffer (100 mM Tris, pH 7.5, 15 mM MgCl2, 0.5 mM DTT, 0.004% (w/v) BSA, and 0.004% Triton X-100). Inhibition of PERK was measured by adding serial diluted test compound (final assay concentration of 1% DMSO). A decrease in absorption at 340 nm was monitored continuously for 6 hours at 30° C. on a multi-mode microplate reader (BioTek). The reaction rate was calculated using the 2-3 h time frame. The reaction rate at each concentration of compound was converted to percent inhibition using controls (i.e., reaction with no test compound and reaction with a known inhibitor) and IC50 values were calculated using software routines in Prism (GraphPad software).

Another test has as its system CCRF-CEM leukemia cells. Put plainly: CCRF-CEM ASNase cell proliferation assay. It counts as cell-based. The settings on record: Homo sapiens, 1 mU/mL ASNase, 72 h. On the procedure: CCRF-CEM leukemia cells (catalog #CCL-116) were obtained from the American Type Culture Collect (ATTC, Manassas, VA). Cells were grown in RPMI-1640 medium supplemented with 10% heat-inactivated fetal bovine serum (Invitrogen, Carlsbad, CA) and 1% Penicillin/Streptomycin/L-Glutamine at 37° C., 5% CO2, and 95% humidity. Cells were expanded until reaching one million cells per mL at which time they are subcultured or harvested for assay use. Ten thousand cells per well in 200 μL RPMI-1640 supplemented with 10% heat-inactivated fetal bovine serum and 1% Penicillin/Streptomycin were dispensed into a 96-well black clear bottom plate. A serial dilution of test compound and 1 mU/mL ASNase was added in triplicate and plates were incubated for 72 h at 37° C., 5% CO2, and 95% humidity. At the end of the incubation, 40 μL of a […] solution of resazurin (Sigma, St. Louis, MO) in PBS was added to each well of the plate and plates were incubated for an additional 6 h at 37° C., 5% CO2, and 95% humidity. Plates were read on a Synergy2 or equivalent reader (Biotek, Winooski VT) using an excitation of 540 nm and an emission of 600 nm. Data was analyzed using GraphPad Prism software (GraphPad, San Diego, CA) to calculate IC50 values.

Test [1] has as its system ATF4 in thapsigargin stimulated CCRF-CEM cells (PERK). Put plainly: CCRF-CEM thapsigargin (TG) ATF4 ELISA. It counts as cell-based. Conditions: Homo sapiens, 1 μM thapsigargin. On the procedure:
CCRF-CEM leukemia cells (catalog #CCL-116) were obtained from the American Type Culture Collection (ATTC, Manassas, VA). Briefly, cells were grown in RPMI-1640 medium supplemented with 10% heat-inactivated fetal bovine serum (Invitrogen, Carlsbad, CA) and 1% Penicillin/Streptomycin/L-Glutamine at 37° C., 5% CO2, and 95% humidity. Cells were expanded until reaching one million cells per mL at which time they were subcultured or harvested for assay use. One million five hundred thousand cells per well in 1 mL complete growth medium were dispensed into 12-well plates and incubated overnight. A serial dilution of test compound was added and cells were incubated at 37° C., 5% CO2, and 95% for three hours, then 1 μM thapsigargin was added and cells were incubated for an additional hour at 37° C., 5% CO2, and 95%. Cells were lysed then ATF4 levels were measured using an ELISA assay (Proteintech, Rosemont, IL). Absorbance was measured at 450 nm and 544 nM using a Synergy2 or equivalent reader (Biotek, Winooski VT). Data was analyzed using PRISM software (Graphpad, San Diego, CA) to calculate IC50 values.
A general note: In an ELISA, binding on a coated surface is turned into a signal by an enzyme label.

For test [2], the system named is ATF4 in H929 multiple myeloma cells. Description: H929 ATF4 ELISA assay. It counts as cell-based. Conditions: four hours, relative to vehicle treated control. On the procedure:
H929 multiple myeloma cells (catalog #CRL-9068) were obtained from the American Type Culture Collection (ATTC, Manassas, VA). Briefly, cells were grown in RPMI-1640 medium supplemented with 20% heat-inactivated fetal bovine serum (catalog #A3840002, ThermoFisher Scientific, Waltham, MA), 1% Penicillin/Streptomycin/L-Glutamine (catalog #10378016, ThermoFisher Scientific, Waltham, MA), and 0.05 mM 2-mercaptoethanol (catalog #21985-023, ThermoFisher Scientific, Waltham, MA) at 37° C., 5% CO2, and 95% humidity. Cells were expanded until reaching one million five hundred thousand cells per mL at which time they were sub-cultured or harvested for assay use. One million five hundred thousand cells per well in 1 mL complete growth medium were dispensed into 12-well plates and incubated overnight. A serial dilution of test compound was added, and cells were incubated at 37° C., 5% CO2, and 95% for four hours. Cells were lysed then ATF4 levels were measured using an ELISA assay (Proteintech, Rosemont, IL). Absorbance is measured at 450 nm and 544 nM using a Synergy2 or equivalent reader (Biotek, Winooski VT). Data were analyzed using PRISM software (Graphpad, San Diego, CA) to calculate fold stimulation of cellular ATF4 relative to vehicle treated control.

Chain of PERK enzyme (Q9NZJ5 other isoform, or with tags, fused parts or gaps): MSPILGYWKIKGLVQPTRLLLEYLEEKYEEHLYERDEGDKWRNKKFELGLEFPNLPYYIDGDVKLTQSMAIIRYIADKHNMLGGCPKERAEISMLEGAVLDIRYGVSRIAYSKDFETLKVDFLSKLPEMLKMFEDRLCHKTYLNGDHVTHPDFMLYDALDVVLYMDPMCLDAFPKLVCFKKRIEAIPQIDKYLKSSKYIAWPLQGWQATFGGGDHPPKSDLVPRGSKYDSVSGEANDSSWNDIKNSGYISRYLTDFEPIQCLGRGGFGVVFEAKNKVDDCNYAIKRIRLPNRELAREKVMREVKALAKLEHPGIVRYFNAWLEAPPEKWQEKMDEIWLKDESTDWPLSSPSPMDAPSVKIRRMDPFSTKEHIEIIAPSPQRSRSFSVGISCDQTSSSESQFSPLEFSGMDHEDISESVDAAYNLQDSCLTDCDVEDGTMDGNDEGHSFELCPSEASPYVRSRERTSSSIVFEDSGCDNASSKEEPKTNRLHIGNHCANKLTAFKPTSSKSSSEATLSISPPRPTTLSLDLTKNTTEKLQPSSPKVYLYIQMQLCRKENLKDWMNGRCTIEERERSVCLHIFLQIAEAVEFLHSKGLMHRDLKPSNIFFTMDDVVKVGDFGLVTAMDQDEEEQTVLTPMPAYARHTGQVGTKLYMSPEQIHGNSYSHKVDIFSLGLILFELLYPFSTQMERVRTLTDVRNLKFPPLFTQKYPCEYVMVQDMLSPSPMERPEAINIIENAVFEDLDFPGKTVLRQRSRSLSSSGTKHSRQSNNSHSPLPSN
Chain of GCN2 kinase (Q9P2K8 whole entry): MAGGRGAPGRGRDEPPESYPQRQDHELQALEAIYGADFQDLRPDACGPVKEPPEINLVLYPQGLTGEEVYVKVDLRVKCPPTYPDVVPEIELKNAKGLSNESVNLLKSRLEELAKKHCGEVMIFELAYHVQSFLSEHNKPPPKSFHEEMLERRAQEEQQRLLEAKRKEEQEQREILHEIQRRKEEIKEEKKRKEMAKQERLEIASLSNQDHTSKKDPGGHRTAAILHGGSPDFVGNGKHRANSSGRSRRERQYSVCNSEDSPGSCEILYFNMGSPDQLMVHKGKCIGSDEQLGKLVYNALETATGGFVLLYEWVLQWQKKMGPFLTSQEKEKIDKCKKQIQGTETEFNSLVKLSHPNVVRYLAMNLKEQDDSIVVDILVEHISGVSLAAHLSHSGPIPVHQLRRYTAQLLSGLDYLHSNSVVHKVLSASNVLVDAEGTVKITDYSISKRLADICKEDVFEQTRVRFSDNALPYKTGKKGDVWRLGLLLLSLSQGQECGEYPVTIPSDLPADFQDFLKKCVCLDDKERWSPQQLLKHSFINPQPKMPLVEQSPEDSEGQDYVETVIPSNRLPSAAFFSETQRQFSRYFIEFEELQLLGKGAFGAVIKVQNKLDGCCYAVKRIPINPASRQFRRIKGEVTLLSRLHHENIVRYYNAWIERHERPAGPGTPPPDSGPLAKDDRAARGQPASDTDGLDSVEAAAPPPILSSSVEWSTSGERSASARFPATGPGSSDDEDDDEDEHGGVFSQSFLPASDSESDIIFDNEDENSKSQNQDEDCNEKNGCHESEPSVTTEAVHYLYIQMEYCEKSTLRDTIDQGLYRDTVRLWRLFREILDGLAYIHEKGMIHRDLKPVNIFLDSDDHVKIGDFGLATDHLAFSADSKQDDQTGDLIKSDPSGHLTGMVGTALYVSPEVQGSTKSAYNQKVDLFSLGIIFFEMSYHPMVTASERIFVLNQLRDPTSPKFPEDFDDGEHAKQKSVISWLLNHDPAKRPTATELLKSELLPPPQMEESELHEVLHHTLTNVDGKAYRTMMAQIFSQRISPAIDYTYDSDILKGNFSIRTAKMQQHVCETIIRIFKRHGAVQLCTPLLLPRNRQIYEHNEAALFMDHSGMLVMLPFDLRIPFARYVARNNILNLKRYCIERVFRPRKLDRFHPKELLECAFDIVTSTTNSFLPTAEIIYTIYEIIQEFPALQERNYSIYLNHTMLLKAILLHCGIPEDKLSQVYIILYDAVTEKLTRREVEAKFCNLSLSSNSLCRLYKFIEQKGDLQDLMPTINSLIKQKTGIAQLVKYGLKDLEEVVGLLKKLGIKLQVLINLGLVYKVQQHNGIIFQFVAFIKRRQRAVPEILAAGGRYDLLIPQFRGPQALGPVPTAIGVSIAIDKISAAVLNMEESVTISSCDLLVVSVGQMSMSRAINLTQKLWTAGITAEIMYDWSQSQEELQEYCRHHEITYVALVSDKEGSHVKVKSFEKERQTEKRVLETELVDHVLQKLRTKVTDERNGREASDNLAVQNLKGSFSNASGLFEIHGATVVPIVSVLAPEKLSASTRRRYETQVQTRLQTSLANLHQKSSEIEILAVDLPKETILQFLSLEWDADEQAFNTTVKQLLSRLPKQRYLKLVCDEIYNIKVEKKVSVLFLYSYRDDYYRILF

Regarding `CC(=O)OCc1cc(Cl)cc(S(=O)(=O)Nc2cccc(-c3cn(C)c4ncnc(N)c34)c2F)c1Cl` [Example 1, 3-(N-(3-(4-amino-7-methyl-7H-pyrrolo[2,3-d]pyrimidin-5-yl)-2-fluorophenyl)sulfamoyl)-2,5-dichlorobenzyl acetate], the IC50 against GCN2 kinase is 1000 to 10000 nM; on PERK enzyme, ≤ 100 nM; in the test on CCRF-CEM leukemia cells it was 100 to 500 nM; in test [1], 100 to 500 nM.

Consider `Cn1cc(-c2cc(F)cc(NS(=O)(=O)c3cc(Cl)cc(CO)c3Cl)c2)c2c(N)ncnc21` [Example 6], for which the IC50 on GCN2 kinase was 100 to 500 nM; against PERK enzyme, ≤ 100 nM; in the test on CCRF-CEM leukemia cells, 500 to 1000 nM; in test [1] it was 100 to 500 nM.

With `Cn1cc(-c2cc(NS(=O)(=O)c3cc(Cl)cc(CO)c3Cl)cc(F)c2F)c2c(N)ncnc21` [Example 7], the IC50 against GCN2 kinase is 100 to 500 nM; against PERK enzyme, ≤ 100 nM; with CCRF-CEM leukemia cells, 500 to 1000 nM; in test [1], 100 to 500 nM.

As to `CC(=O)OCc1cc(Cl)cc(S(=O)(=O)Nc2cccc(-c3cn(C4COC4)c4ncnc(N)c34)c2F)c1Cl` [Example 9], the IC50 at GCN2 kinase is 1000 to 10000 nM; at PERK enzyme, ≤ 100 nM; in the test on CCRF-CEM leukemia cells, 100 to 500 nM; in test [1] it was ≤ 100 nM.

With `Nc1nccc2scc(-c3cccc(NS(=O)(=O)c4cc(Cl)cc(CO)c4Cl)c3F)c12` [Example 11], the IC50 lay in the range of 100 to 500 nM against GCN2 kinase, 500 to 1000 nM in the test with CCRF-CEM leukemia cells and 1000 to 10000 nM in test [1].

Consider `Nc1nccc2occ(-c3cccc(NS(=O)(=O)c4cc(Cl)cc(CO)c4Cl)c3F)c12` [Example 12], for which the IC50 against GCN2 kinase is 100 to 500 nM; in the test with CCRF-CEM leukemia cells it was 1000 to 10000 nM; in test [1], 1000 to 10000 nM.

For `CC(C)(C)n1cc(-c2cccc(NS(=O)(=O)c3cc(Cl)cc(CO)c3Cl)c2F)c2c(N)ncnc21` [Example 13], the IC50 against GCN2 kinase was 100 to 500 nM; against PERK enzyme it was ≤ 100 nM; in the test on CCRF-CEM leukemia cells it was 100 to 500 nM; in test [1] it was 100 to 500 nM.

In the case of `Nc1ncnc2c1c(-c1cccc(NS(=O)(=O)c3cc(Cl)cc(CO)c3Cl)c1F)cn2C1CCNCC1` [Example 15], the IC50 is ≤ 100 nM on GCN2 kinase, ≤ 100 nM against PERK enzyme, 100 to 500 nM with CCRF-CEM leukemia cells and 500 to 1000 nM in test [1].

As to `Nc1ncnc2c1c(-c1cccc(NS(=O)(=O)c3cc(Cl)cc(CO)c3Cl)c1F)cn2C1CNC1` [Example 16], the IC50 on GCN2 kinase was ≤ 100 nM; against PERK enzyme it was ≤ 100 nM; with CCRF-CEM leukemia cells it was 500 to 1000 nM; in test [1], 100 to 500 nM.

Take `CN1CCC(n2cc(-c3cccc(NS(=O)(=O)c4cc(Cl)cc(CO)c4Cl)c3F)c3c(N)ncnc32)CC1` [Example 17]: the IC50 (in the test with CCRF-CEM leukemia cells; in test [1]) was ≤ 100 nM throughout. Further, the “H929 NS ATF4 ELISA (ATF4 stim)” value in test [2] is “+++ (an ATF4 stim greater than 10 fold and less than or equal to 20 fold)”.

For `Cn1cc(-c2cccc(NS(=O)(=O)c3cc(Cl)cc(CO)c3Cl)c2F)c2c(N)nccc21` [Example 18], the IC50 against GCN2 kinase was 1000 to 10000 nM; against PERK enzyme it was ≤ 100 nM; with CCRF-CEM leukemia cells it was 1000 to 10000 nM; in test [1], 1000 to 10000 nM.

For `Cn1cc(-c2cccc(NS(=O)(=O)c3cc(F)cc(CO)c3Cl)c2F)c2c(N)ncnc21` [Example 19], the IC50 is 100 to 500 nM at GCN2 kinase, ≤ 100 nM against PERK enzyme, 100 to 500 nM in the test on CCRF-CEM leukemia cells and ≤ 100 nM in test [1].

`Cn1cc(-c2cccc(NS(=O)(=O)c3cc(Cl)cc(CO)c3Cl)c2Cl)c2c(N)ncnc21` [Example 20]: the IC50 against GCN2 kinase was 100 to 500 nM; against PERK enzyme it was ≤ 100 nM; in the test with CCRF-CEM leukemia cells, 100 to 500 nM; in test [1], 100 to 500 nM.

Regarding `Cn1cc(-c2cccc(NS(=O)(=O)c3cc(Cl)cc(CO)c3F)c2F)c2c(N)ncnc21` [Example 22], the IC50 against GCN2 kinase is 100 to 500 nM; against PERK enzyme, ≤ 100 nM; with CCRF-CEM leukemia cells, 1000 to 10000 nM; in test [1], 100 to 500 nM.

Take `[2H]C([2H])([2H])n1cc(-c2cccc(NS(=O)(=O)c3cc(Cl)cc(CO)c3Cl)c2F)c2c(N)ncnc21` [Example 27]: the IC50 (on GCN2 kinase; against PERK enzyme; in the test with CCRF-CEM leukemia cells; in test [1]) was ≤ 100 nM each time.

For the molecule `COCc1cc(Cl)cc(S(=O)(=O)Nc2cccc(-c3cn(C)c4ncnc(N)c34)c2F)c1Cl` [Example 29], the IC50 against GCN2 kinase was 100 to 500 nM; against PERK enzyme it was ≤ 100 nM; with CCRF-CEM leukemia cells it was 1000 to 10000 nM; in test [1] it was 100 to 500 nM.

For the molecule `CCC(C)(C)C(=O)OCc1cc(Cl)cc(S(=O)(=O)Nc2cccc(-c3cn(C)c4ncnc(N)c34)c2F)c1Cl` [Example 30], the IC50 fell in the range of 1000 to 10000 nM against GCN2 kinase, 1000 to 10000 nM against PERK enzyme, 1000 to 10000 nM with CCRF-CEM leukemia cells and 500 to 1000 nM in test [1].

As to `Cn1cc(-n2cc(-c3cccc(NS(=O)(=O)c4cc(Cl)cc(CO)c4Cl)c3F)c3c(N)ncnc32)cn1` [Example 31], the IC50 (on GCN2 kinase; on PERK enzyme; in the test on CCRF-CEM leukemia cells; in test [1]) was ≤ 100 nM throughout.

As for `Nc1ncnc2c1c(-c1cccc(NS(=O)(=O)c3cc(Cl)cc(CO)c3Cl)c1F)cn2-c1cn[nH]c1` [Example 32], the IC50 on GCN2 kinase is ≤ 100 nM; against PERK enzyme it was ≤ 100 nM; in the test with CCRF-CEM leukemia cells it was ≤ 100 nM; in test [1], 100 to 500 nM.

For `Cn1cc(-c2cccc(NS(=O)(=O)c3cc(Cl)cc(CO)c3Br)c2F)c2c(N)ncnc21` [Example 33], the IC50 (against GCN2 kinase; against PERK enzyme; in the test with CCRF-CEM leukemia cells; in test [1]) was ≤ 100 nM each time.
